Experimental data taken from PMC9037111, “Structure-based design, synthesis, and biological evaluation of novel piperine–resveratrol hybrids as antiproliferative agents targeting SIRT-2” (RSC Advances, 2021).
Like-named read-outs stand apart in the source and are kept apart here.

Columns and labels:
Assay in all cases: cells
Set-up in all cases: species or system NCI-60 human tumour cell lines; NCI-60 one-dose screen at 10 uM, percent growth inhibition versus untreated control cells
BT-549 = details: Homo sapiens, BT-549, growth inhibition, one dose
HCC-2998 = details: Homo sapiens, HCC 2998, growth inhibition, one dose
HCT-15 = details: Homo sapiens, HCT-15, growth inhibition, one dose
HOP-62 = details: Homo sapiens, HOP-62, growth inhibition, one dose
HS 578 T = details: Homo sapiens, Hs-578T, growth inhibition, one dose
LOX IMVI = details: Homo sapiens, LOX IMVI, growth inhibition, one dose
M14 = details: Homo sapiens, M14, growth inhibition, one dose
MALME-3M = details: Homo sapiens, Malme-3M, growth inhibition, one dose
MCF7 = details: Homo sapiens, MCF7, growth inhibition, one dose
MDA-MB-435 = details: Homo sapiens, MDA-MB-435, growth inhibition, one dose
MOLT-4 = details: Homo sapiens, MOLT-4, growth inhibition, one dose
OVCAR-8 = details: Homo sapiens, OVCAR-8, growth inhibition, one dose
SF-268 = details: Homo sapiens, SF-268, growth inhibition, one dose
SK-MEL-2 = details: Homo sapiens, SK-MEL-2, growth inhibition, one dose
SN12C = details: Homo sapiens, SN12C, growth inhibition, one dose
SNB-19 = details: Homo sapiens, SNB-19, growth inhibition, one dose
U251 = details: Homo sapiens, U-251, growth inhibition, one dose
UO-31 = details: Homo sapiens, UO-31, growth inhibition, one dose
[1] = read-out: Growth% inhibition / 5b
[2] = read-out: Growth% inhibition / 5d
[3] = read-out: Growth% inhibition / 5h
[4] = read-out: Growth% inhibition / 5e
[5] = read-out: Growth% inhibition / 5a

**Q.** For `O=C(/C=C/C=C/c1ccc2c(c1)OCO2)N/N=C/c1ccc(O)cc1O` [5b, (2E,4E)-5-(Benzo[d][1,3]dioxol-5-yl)-N′-((E)-2,4-dihydroxybenzylidene)penta-2,4-dienehydrazide], which inhibition at 10 µM (BT-549; [1]) is on record?
**A.** The inhibition at 10 µM was 72.7%.

**Q.** And the inhibition at 10 µM (HCC-2998; [1])?
**A.** The inhibition at 10 µM was 61.1%.

**Q.** And the inhibition at 10 µM (HCT-15; [1])?
**A.** The inhibition at 10 µM was 83%.

**Q.** What about the inhibition at 10 µM (HOP-62; [1]) of the same molecule?
**A.** Its inhibition at 10 µM is 72.9%.

**Q.** What about the inhibition at 10 µM (HS 578 T; [1]) of the same molecule?
**A.** Its inhibition at 10 µM is 29.8%.

**Q.** What about the inhibition at 10 µM (LOX IMVI; [1]) of the same molecule?
**A.** Its inhibition at 10 µM is 90.3%.

**Q.** What about the inhibition at 10 µM (M14; [1]) of the same molecule?
**A.** The inhibition at 10 µM was 69.7%.

**Q.** And the inhibition at 10 µM (MALME-3M; [1])?
**A.** The inhibition at 10 µM was 59.7%.

**Q.** What about the inhibition at 10 µM (MCF7; [1]) of the same molecule?
**A.** The inhibition at 10 µM was 85.9%.

**Q.** And the inhibition at 10 µM (MDA-MB-435; [1])?
**A.** Its inhibition at 10 µM is 67.4%.

**Q.** What about the inhibition at 10 µM (MOLT-4; [1]) of the same molecule?
**A.** The inhibition at 10 µM was 86.7%.

**Q.** And the inhibition at 10 µM (OVCAR-8; [1])?
**A.** The inhibition at 10 µM was 77.2%.

**Q.** And the inhibition at 10 µM (SF-268; [1])?
**A.** The inhibition at 10 µM was 75.6%.

**Q.** And the inhibition at 10 µM (SK-MEL-2; [1])?
**A.** Its inhibition at 10 µM is 47.2%.

**Q.** And the inhibition at 10 µM (SN12C; [1])?
**A.** Its inhibition at 10 µM is 67.2%.

**Q.** What about the inhibition at 10 µM (SNB-19; [1]) of the same molecule?
**A.** The inhibition at 10 µM was 50.9%.

**Q.** What about the inhibition at 10 µM (U251; [1]) of the same molecule?
**A.** Its inhibition at 10 µM is 68.7%.

**Q.** And the inhibition at 10 µM (UO-31; [1])?
**A.** The inhibition at 10 µM was 88.6%.

**Q.** What does the source list for `CN(C)c1ccc(C=NNC(=O)/C=C/C=C/c2ccc3c(c2)OCO3)cc1` (mixture of isomers) [5d, (2E,4E)-5-(Benzo[d][1,3]dioxol-5-yl)-N′-((E/Z)-4-(dimethylamino)-benzylidene)penta-2,4-dienehydrazide]?
**A.** inhibition at 10 µM (HCT-15; [2]): 24.2%; inhibition at 10 µM (LOX IMVI; [2]): 11.1%; inhibition at 10 µM (M14; [2]): 22.2%; inhibition at 10 µM (MCF7; [2]): 43.6%; inhibition at 10 µM (MDA-MB-435; [2]): 70.1%; inhibition at 10 µM (UO-31; [2]): 23.7%

**Q.** `C/C(=N\NC(=O)/C=C/C=C/c1ccc2c(c1)OCO2)c1ccc(Br)cc1` [5h, (2E,4E)-5-(Benzo[d][1,3]dioxol-5-yl)-N′-((E)-1-(4-bromophenyl)ethylidene)penta-2,4-dienehydrazide] was tested. Which inhibition at 10 µM (HCC-2998; [3]) did it give?
**A.** Its inhibition at 10 µM is 10.8%.

**Q.** And the inhibition at 10 µM (HCT-15; [3])?
**A.** The inhibition at 10 µM was 36.3%.

**Q.** What about the inhibition at 10 µM (HOP-62; [3]) of the same molecule?
**A.** The inhibition at 10 µM was 33.2%.

**Q.** And the inhibition at 10 µM (HS 578 T; [3])?
**A.** The inhibition at 10 µM was 86.5%.

**Q.** And the inhibition at 10 µM (LOX IMVI; [3])?
**A.** The inhibition at 10 µM was 38.3%.

**Q.** What about the inhibition at 10 µM (M14; [3]) of the same molecule?
**A.** The inhibition at 10 µM was 26.7%.

**Q.** What about the inhibition at 10 µM (MALME-3M; [3]) of the same molecule?
**A.** Its inhibition at 10 µM is 28.7%.

**Q.** What about the inhibition at 10 µM (MCF7; [3]) of the same molecule?
**A.** Its inhibition at 10 µM is 38.7%.

**Q.** What about the inhibition at 10 µM (MDA-MB-435; [3]) of the same molecule?
**A.** Its inhibition at 10 µM is 13.6%.

**Q.** What about the inhibition at 10 µM (MOLT-4; [3]) of the same molecule?
**A.** The inhibition at 10 µM was 25.3%.

**Q.** What about the inhibition at 10 µM (OVCAR-8; [3]) of the same molecule?
**A.** The inhibition at 10 µM was 24.7%.

**Q.** And the inhibition at 10 µM (SF-268; [3])?
**A.** Its inhibition at 10 µM is 32.5%.

**Q.** And the inhibition at 10 µM (SK-MEL-2; [3])?
**A.** The inhibition at 10 µM was 11%.

**Q.** What about the inhibition at 10 µM (SN12C; [3]) of the same molecule?
**A.** The inhibition at 10 µM was 12.4%.

**Q.** And the inhibition at 10 µM (SNB-19; [3])?
**A.** The inhibition at 10 µM was 14.5%.

**Q.** And the inhibition at 10 µM (U251; [3])?
**A.** Its inhibition at 10 µM is 16%.

**Q.** What about the inhibition at 10 µM (UO-31; [3]) of the same molecule?
**A.** Its inhibition at 10 µM is 44.9%.

**Q.** With `CCN(CC)c1ccc(/C=N/NC(=O)/C=C/C=C/c2ccc3c(c2)OCO3)c(O)c1` [5e, (2E,4E)-5-(Benzo[d][1,3]dioxol-5-yl)-N′-((E)-4-(diethylamino)-2-hydroxybenzylidene)penta-2,4-dienehydrazide] as the molecule, how does the inhibition at 10 µM (BT-549; [4]) read?
**A.** The inhibition at 10 µM was 48.2%.

**Q.** What about the inhibition at 10 µM (HCC-2998; [4]) of the same molecule?
**A.** Its inhibition at 10 µM is 46%.

**Q.** What about the inhibition at 10 µM (HCT-15; [4]) of the same molecule?
**A.** The inhibition at 10 µM was 78.7%.

**Q.** And the inhibition at 10 µM (HOP-62; [4])?
**A.** Its inhibition at 10 µM is 71.5%.

**Q.** What about the inhibition at 10 µM (HS 578 T; [4]) of the same molecule?
**A.** The inhibition at 10 µM was 31.9%.

**Q.** What about the inhibition at 10 µM (LOX IMVI; [4]) of the same molecule?
**A.** Its inhibition at 10 µM is 81.8%.

**Q.** What about the inhibition at 10 µM (M14; [4]) of the same molecule?
**A.** Its inhibition at 10 µM is 63.6%.

**Q.** And the inhibition at 10 µM (MALME-3M; [4])?
**A.** Its inhibition at 10 µM is 43.5%.

**Q.** And the inhibition at 10 µM (MCF7; [4])?
**A.** The inhibition at 10 µM was 80.5%.

**Q.** And the inhibition at 10 µM (MDA-MB-435; [4])?
**A.** Its inhibition at 10 µM is 51.1%.

**Q.** What about the inhibition at 10 µM (MOLT-4; [4]) of the same molecule?
**A.** Its inhibition at 10 µM is 81.7%.

**Q.** What about the inhibition at 10 µM (OVCAR-8; [4]) of the same molecule?
**A.** Its inhibition at 10 µM is 67.1%.

**Q.** And the inhibition at 10 µM (SF-268; [4])?
**A.** The inhibition at 10 µM was 66.3%.

**Q.** What about the inhibition at 10 µM (SK-MEL-2; [4]) of the same molecule?
**A.** The inhibition at 10 µM was 34.3%.

**Q.** What about the inhibition at 10 µM (SN12C; [4]) of the same molecule?
**A.** Its inhibition at 10 µM is 45.9%.

**Q.** What about the inhibition at 10 µM (SNB-19; [4]) of the same molecule?
**A.** The inhibition at 10 µM was 39%.

**Q.** And the inhibition at 10 µM (U251; [4])?
**A.** The inhibition at 10 µM was 56.8%.

**Q.** What about the inhibition at 10 µM (UO-31; [4]) of the same molecule?
**A.** The inhibition at 10 µM was 75%.

**Q.** Which results are given for `O=C(/C=C/C=C/c1ccc2c(c1)OCO2)NN=Cc1ccc(O)cc1` [5a, (2E,4E)-5-(Benzo[d][1,3]dioxol-5-yl)-N′-((E,Z)-4-hydroxybenzylidene)penta-2,4-dienehydrazide]?
**A.** inhibition at 10 µM (BT-549; [5]): 21.5%; inhibition at 10 µM (HCT-15; [5]): 39.7%; inhibition at 10 µM (LOX IMVI; [5]): 38.5%; inhibition at 10 µM (M14; [5]): 17.1%; inhibition at 10 µM (MCF7; [5]): 28.8%; inhibition at 10 µM (MDA-MB-435; [5]): 73%; inhibition at 10 µM (MOLT-4; [5]): 23.5%; inhibition at 10 µM (SF-268; [5]): 17.1%; inhibition at 10 µM (UO-31; [5]): 39.2%
